Test results reported in patent US7754699B2, “Antiviral nucleosides” (Roche Palo Alto LLC, priority 2005, dated 2010).
Converted amounts (≈) assume the structure as drawn. Read-outs that look alike come from different tables or passages of the source.

Columns and labels:
[1] = system: HCV; conditions: monotherapy; cited from earlier work
[2] = in vitro; type: in vitro ADME; conditions: human, Caco-2, Caco-2 (2-7d) Papp
Method: To further evaluate potential behavior in human subjects, the transport through Caco-2 cells was evaluated for the putative prodrugs. Caco-2 cells are commonly used to evaluated the potential absorption/permeability of molecules (G. Gaviraghi et al. in Pharmacokinetic optimization in drug research. Biological, Pharmacokinetic and Computational Strategies. B. Testa et al. eds. Wiley Interscience VCH, Zurich 2001 pp 3-14).
Powders of Krebs-Henseleit buffer, calcium chloride dihydrate, and sodium bicarbonate were purchased from Sigma (St. Louis, Mo.). Caco-2 cells (Passage ˜100) were obtained from Roche Basel. DMEM/high medium, 4-(2-hydroxyethyl)-1-piperazineethane-sulfonic acid (HEPES), and bovine serum were obtained from JRH Bioscience (Lenexa, Kans.). MEM nonessential amino acids, L-glutamine, penicillin, and streptomycin were obtained from GIBCO Labs, Life Tech. LLC (Grand Island, N.Y.). Snapwell cell culture inserts ([…], 1.12 cm^2, 0.4 μm pore size) were obtained from Costar (Cambridge, Mass.).
Cells were grown in 75-cm^2 flasks and maintained at 37° C. in an atmosphere of 5% CO2 and 95% air. Culture media consisted of DMEM/high medium supplemented with 5% bovine serum, 25 mM HEPES, 1% MEM non-essential amino acids, 1% L-glutamine, 100 U/mL penicillin, and 100 μg/mL streptomycin. Cultures were passaged every week at a split ratio of 1-3. For the permeability studies, Caco-2 cells at passage number 110-120 were plated at a density of 400,000 cells/cm^2 on Transwell polycarbonate filters in Snapwell inserts and allowed to culture for 7 days prior to use.
Krebs-Henseleit bicarbonate buffer containing 10 mM glucose and 2.5 mM CaCl2 adjusted to pH 6.5 and 7.4 were prepared per packet instructions. Powder salts were quantitatively dissolved in about 90% of required volume with Millipore water. Calcium chloride dihydrate and sodium bicarbonate were added before pH adjustment with 1N HCl or 1N NaOH. Additional Millipore water was added to bring the solution to final volume. The solution was sterilized by filtration using membrane with a porosity of 0.22 microns and stored in the refrigerator ([…]) until use.
Differentiated cells were obtained from Cell Culture Core Facility and allowed to equilibrate at 37° C. in an atmosphere of 5% CO2 and 95% air. Snapwells inserts, containing caco-2 monolayers were rinsed in 37° C. equilibrated Krebs-Henseleit pH 7.4 buffer.
The cell insert was utilized as the diffusion chamber. The pH of the Krebs-Henseleit buffer in the apical and basolateral chambers was 6.5 and 7.4, respectively, and the initial concentration of substrate in apical side was 100 μM. […]
The Papp was calculated using the following formula: […]

[3] = Experimentally determined distribution coefficient; type: physicochemical; conditions: octanol/buffered aqueous solution, pH 7.4; read-out: log D (distribution coefficient)
Excerpt: The expression PO/W as used herein refers to the octanol/water partition coefficient. The expression clogP as used herein refers to the calculated PO/W. Computer programs which calculate PO/W are readily available to the pharmaceutical and medicinal chemist. The term distribution coefficient refers to the experimentally determined partition coefficient between octanol and a buffered aqueous solution. The partition coefficient and distribution coefficient are generally similar but the latter is a function of the pH of the aqueous solution whereas the PO/W is independent of pH.

[4] = Solubility; type: physicochemical
Method: (§1) Particularly relevant are water solubility, partition coefficient and stability in gastric and intestinal fluids. […] The solubility in water of a orally administered prodrug should be greater than at least about 0.1 mg/mL for optimal formulation and the half-lives in simulated gastric fluid and simulated intestinal fluid should be 1-2 h and 2-4 h respectively to allow sufficient time to traverse the stomach and be absorbed in the intestine.

[5] = Stability in simulated gastric fluid; type: physicochemical; conditions: simulated gastric fluid pH 1.2, 37° C.; read-out: SGF T1/2 (converted)
Method: as §1

[6] = Stability in simulated intestinal fluid; type: physicochemical; conditions: simulated intestinal fluid pH 7.4, 37° C.; read-out: SIF T1/2 (converted)
Method: as §1

[7] = aqueous media, water, or buffer pH 6.5, read-out: Solubility
[8] = simulated gastric fluid (SGF), simulated gastric fluid, read-out: Solubility in SGF
[9] = simulated intestinal fluid (SIF), fassgf or other biorelevant, media is SIF, read-out: Solubility

Row | SMILES | Papp A→B at 30 min, 100 μM [2] [×10⁻⁶ cm/s] | logD [3] | solubility [4, 7] [µg/mL] | solubility [4, 8] [µg/mL] | half-life [5] [h] | half-life [6] [h] | melting point [°C] | reduces serum amino transferase levels to normal [1] | serum levels of HCV-RNA [1] | solubility [4, 9] [µg/mL]
1 | NC(=O)c1ncn([C@@H]2O[C@H](CO)[C@@H](O)[C@H]2O)n1 [ribavirin, 1-((2R,3R,4S,5R)-3,4-Dihydroxy-5-hydroxymethyl-tetrahydro-furan-2-yl)-1H-[1,2,4]triazole-3-carboxylic acid amide] | – | – | – | – | – | – | – | 40 % of patients | does not lower | –
2 | CC(C)C(=O)OC[C@H]1O[C@@H](n2ccc(N)nc2=O)[C@](C)(F)[C@@H]1OC(=O)C(C)C [I-2, Isobutyric acid (2R,3R,4R,5R)-5-(4-amino-2-oxo-2H-pyrimidin-1-yl)-4-fluoro-3-isobutyryloxy-4-methyl-tetrahydro-furan-2-ylmethyl ester] | 3.93 | 1.67 | 180 (≈ 0.451 mM) | 13300 (≈ 33.3 mM) | 25.1 | 866 | – | – | – | –
3 | CC(C)COC(=O)OC[C@H]1O[C@@H](n2ccc(N)nc2=O)[C@](C)(F)[C@@H]1OC(=O)OCC(C)C [I-4, Carbonic acid (2R,3R,4R,5R)-5-(4-amino-2-oxo-2H-pyrimidin-1-yl)-4-fluoro-2-isobutoxycarbonyloxymethyl-4-methyl-tetrahydro-furan-3-yl ester isobutyl ester] | 6.4 | – | – | 160 (≈ 0.348 mM) | > 7 | > 15 | 210 to 211.5 | – | – | 13 (≈ 0.0283 mM)
4 | CCCOC(=O)OC[C@H]1O[C@@H](n2ccc(N)nc2=O)[C@](C)(F)[C@@H]1OC(=O)OCCC.Cl [I-5, Carbonic acid (2R,3R,4R,5R)-5-(4-amino-2-oxo-2H-pyrimidin-1-yl)-4-fluoro-4-methyl-2-propoxycarbonyloxymethyl-tetrahydro-furan-3-yl ester propyl ester; hydrochloride salt] | 13.4 | – | 130 | – | > 10.4 | > 11 | 192 to 194.4 | – | – | –

Further lines, with some results ahead:

Row | Papp A→B at 30 min, 100 μM [2] [×10⁻⁶ cm/s] | logD [3] | solubility [4, 7] [µg/mL] | solubility [4, 8] [µg/mL] | half-life [5] [h] | half-life [6] [h] | melting point [°C] | SMILES | reduces serum amino transferase levels to normal [1] | serum levels of HCV-RNA [1] | solubility [4, 9] [µg/mL]
5 | 0.4 | – | 76000 (≈ 293 mM) | – | > 12 | > 12 | – | C[C@@]1(F)[C@H](O)[C@@H](CO)O[C@H]1n1ccc(N)nc1=O [I-6, 4-amino-1-((2R,3R,4R,5R)-3-fluoro-4-hydroxy-5-hydroxymethyl-3-methyl-tetrahydro-furan-2-yl)-1H-pyrimidin-2-one, reference compound] | – | – | –
6 | – | 0.9 | – | 13600 (≈ 36.6 mM) | 9 | 72 | 185.2 to 186 | CCC(=O)OC[C@H]1O[C@@H](n2ccc(N)nc2=O)[C@](C)(F)[C@@H]1OC(=O)CC [I-3, Propionic acid (2R,3R,4R,5R)-5-(4-amino-2-oxo-2H-pyrimidin-1-yl)-4-fluoro-4-methyl-3-propionyloxy-tetrahydro-furan-2-ylmethyl ester] | – | – | 3700 (≈ 9.96 mM)
